In patent US8168656B2, “Indoleacetic acid and indenacetic acid derivatives as therapeutic agents with reduced gastrointestinal toxicity” (Vanderbilt University, priority 2009, dated 2012):
Where a chain is given by its changes, count along the chain named.

Legend:
mCOX-2^V349A = biological target: T1, mCOX-2^V349A (Mus musculus, UniProt Q05769, V335A); assay: Steady-state quenching of COX intrinsic fluorescence (apo-protein); assay type: binding, murine
T1 construct: made in house; host or cells: Sf9 insect cells (baculovirus, pVL1393)
T1 sequence (Q05769 18-604 V335A): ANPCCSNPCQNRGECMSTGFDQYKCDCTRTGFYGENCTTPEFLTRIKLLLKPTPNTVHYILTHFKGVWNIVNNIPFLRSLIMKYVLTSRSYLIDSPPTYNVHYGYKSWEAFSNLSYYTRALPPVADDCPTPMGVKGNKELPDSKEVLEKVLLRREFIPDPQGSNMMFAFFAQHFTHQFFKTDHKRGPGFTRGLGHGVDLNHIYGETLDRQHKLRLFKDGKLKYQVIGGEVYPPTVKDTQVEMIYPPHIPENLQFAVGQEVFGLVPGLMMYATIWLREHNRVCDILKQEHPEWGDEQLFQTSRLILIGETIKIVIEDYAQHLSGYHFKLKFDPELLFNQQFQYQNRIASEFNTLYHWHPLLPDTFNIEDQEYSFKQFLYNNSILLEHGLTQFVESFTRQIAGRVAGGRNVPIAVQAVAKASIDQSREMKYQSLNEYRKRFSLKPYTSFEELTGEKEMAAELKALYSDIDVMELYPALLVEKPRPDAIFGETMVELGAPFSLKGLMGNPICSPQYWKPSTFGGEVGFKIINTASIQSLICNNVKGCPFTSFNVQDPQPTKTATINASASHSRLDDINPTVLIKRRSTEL
Experimental: Steady-state measurements were performed at 37° C. in a 3.5 ml fluorescence cuvette with continuous stirring. […] Data were collected over 240 or 360 seconds with 2-second integration times. The reversibility of quenching was analyzed in the same manner, with subsequent addition of 50 μM AA as competitor. The ligands were dissolved in DMSO before further dilution into buffer. The organic component in the buffer was below 0.4%.
This assay provided a method to directly monitor the binding of INDO and DM-INDO to COXs. Various concentrations of INDO and DM-INDO were added to apo-proteins and the rate of fluorescence decrease was monitored over time. After the mixture reached equilibrium, 50 μM of AA was added as competitor to monitor the reversibility of binding. The kinetic data for quenching were analyzed in the same manner as those for inhibition. For clarity, the equilibrium constant for the first step of fluorescence quenching is referred to as Kd, and k2 and k−2 from the second step of quenching are represented by k′2 and k′−2, respectively.

mCOX-2^V349L = biological target: T2, mCOX-2^V349L (Mus musculus, UniProt Q05769, V335L); assay: Kinetics of time-dependent COX inhibition; assay type: biochemical, murine
T2 construct: made in house; host or cells: Sf9 insect cells (baculovirus, pVL1393)
T2 sequence (Q05769 18-604 V335L): T1 sequence (Q05769 18-604 V335A) with A318L
Experimental: (§1) Assays were terminated and analyzed for substrate consumption by thin layer chromatography. […] Time-dependent COX inhibition reactions were pre-incubated at 37° C. for varying lengths of time (0-30 minutes) with various concentrations of inhibitor. All reactions were performed with [1-^14C]-AA for 30 seconds at 37° C.; reactions were terminated and analyzed as described above.
(§2) To ensure that pseudo-first-order conditions were maintained, the enzymatic oxygenation reactions were terminated after 30 seconds to prevent extensive consumption of substrate. The decline of substrate conversion at different INDO concentrations was plotted against the pre-incubation times and fit to a single exponential decay with a plateau to determine kobs (FIG. 2).
(§3) The rate constant k2 represents the limiting forward rate constant for functionally irreversible inhibition, and KI corresponds to the inhibitor concentration that yields a rate equal to half of the limiting rate.

wild type mCOX-2 = biological target: T3, wild type mCOX-2 (Mus musculus, UniProt Q05769); assay: Kinetics of time-dependent COX inhibition; assay type: biochemical, murine
T3 construct: made in house; host or cells: Sf9 insect cells (baculovirus, pVL1393)
T3 sequence (Q05769 18-604): T1 sequence (Q05769 18-604 V335A) with A318V
Experimental: as §1, §2, §3

## COc1ccc2c(c1)c(CC(=O)O)cn2C(=O)c1ccc(Cl)cc1 [DM-INDO, 2-Des-methylindomethacin]
mCOX-2^V349A; fluorescence increase from competition with 50 μM AA
  k′−2^b: 0.046 ± 0.002 s⁻¹
mCOX-2^V349A; fluorescence quenching
  Kd: 1.4 ± 0.3 µM
  k′2: 0.17 ± 0.04 s⁻¹
mCOX-2^V349A; fluorescence quenching (decay)
  k′−2: 0.045 ± 0.008 s⁻¹
mCOX-2^V349L; V349L
  remaining activity approached (plateau) in time-dependent inhibition curves: about 30%
mCOX-2^V349L; V349L versus wild type mCOX-2
  higher concentrations required for V349L to achieve similar inhibition as wild type mCOX-2: ~10 fold
mCOX-2^V349L; V349L, graph did not plateau, linear regression
  k−2 (y-intercept of linear regression analysis): 0.0025 ± 0.0003 s⁻¹
Wild type mCOX-2
  off-rate constant slower than the on-rate: 14 fold
  remaining activity approached (plateau) in time-dependent inhibition curves: about 30%
Wild type mCOX-2; DM-INDO versus INDO
  on-rate constant (k2) faster than for INDO: 14 fold
Wild type mCOX-2; time-dependent inhibition
  Ki: 26 ± 7 µM
  k2: 0.80 ± 0.03 s⁻¹
  k−2: 0.05 ± 0.02 s⁻¹
